ChEMBL document CHEMBL1671758, “Environmental study of azole-resistant Aspergillus fumigatus and other aspergilli in Austria, Denmark, and Spain” (2010)
≈ marks a conversion by molar mass, not a printed value. Calls of active or inactive are those of the source. The rule behind the calls is not given here.

How the values were obtained:
Aspergillus fumigatus [1] = experiment: Antifungal activity against azole-resistant Aspergillus fumigatus isolate R13 harboring Cyp51A TR/L98H mutant gene assessed as inhibition of fungal growth at 4 mg/l relative to control; format: functional, organism-based
Aspergillus nidulans = experiment: Antifungal activity against Aspergillus nidulans isolate; format: functional
Aspergillus fumigatus [2] = experiment: Antifungal activity against Aspergillus fumigatus isolates harboring Cyp51A TR/L98H mutation by EUCAST method; format: functional
Aspergillus fumigatus [3] = experiment: Antifungal activity against azole-resistant Aspergillus fumigatus isolate T22 harboring Cyp51A TR/L98H mutation assessed as inhibition of fungal growth at 4 mg/l relative to control; format: functional, organism-based
Aspergillus fumigatus [4] = experiment: Antifungal activity against azole-resistant Aspergillus fumigatus isolate T11 harboring Cyp51A TR/L98H mutant gene assessed as inhibition of fungal growth at 4 mg/l relative to control; format: functional, organism-based
Aspergillus fumigatus [5] = experiment: Antifungal activity against azole-susceptible Aspergillus fumigatus isolate CM-237 assessed as fungal growth at 4 mg/l relative to control; format: functional, organism-based
Aspergillus lentulus = experiment: Antifungal activity against Aspergillus lentulus isolate; format: functional
Aspergillus fumigatus [6] = experiment: Antifungal activity against azole-resistant Aspergillus fumigatus isolate T18 harboring Cyp51A TR/L98H mutation assessed as inhibition of fungal growth at 4 mg/l relative to control; format: functional, organism-based
Aspergillus fumigatus [7] = experiment: Antifungal activity against azole-susceptible Aspergillus fumigatus isolate CM-237 by EUCAST microdilution method; format: functional
Aspergillus niger = experiment: Antifungal activity against Aspergillus niger isolate; format: functional
Aspergillus fumigatus [8] = experiment: Antifungal activity against azole-resistant Aspergillus fumigatus isolate R13 harboring Cyp51A TR/L98H mutant gene assessed as inhibition of fungal growth at 0.5 mg/l relative to control; format: functional, organism-based
Aspergillus fumigatus [9] = experiment: Antifungal activity against azole-susceptible Aspergillus fumigatus isolate CM-237 assessed as fungal growth at 0.5 mg/l relative to control; format: functional, organism-based
Aspergillus fumigatus [10] = experiment: Antifungal activity against azole-resistant Aspergillus fumigatus isolate T11 harboring Cyp51A TR/L98H mutant gene assessed as inhibition of fungal growth at 0.5 mg/l relative to control; format: functional, organism-based
Aspergillus fumigatus [11] = experiment: Antifungal activity against azole-resistant Aspergillus fumigatus isolate T18 harboring Cyp51A TR/L98H mutation assessed as inhibition of fungal growth at 0.5 mg/l relative to control; format: functional, organism-based
Aspergillus fumigatus [12] = experiment: Antifungal activity against azole-resistant Aspergillus fumigatus isolate T22 harboring Cyp51A TR/L98H mutation assessed as inhibition of fungal growth at 0.5 mg/l relative to control; format: functional, organism-based
Aspergillus fumigatus [13] = experiment: Antifungal activity against azole-resistant Aspergillus fumigatus isolate T18 harboring Cyp51A TR/L98H mutation assessed as inhibition of fungal growth at 1 mg/l relative to control; format: functional, organism-based
Aspergillus fumigatus [14] = experiment: Antifungal activity against azole-resistant Aspergillus fumigatus isolate R13 harboring Cyp51A TR/L98H mutant gene assessed as inhibition of fungal growth at 1 mg/l relative to control; format: functional, organism-based
Aspergillus fumigatus [15] = experiment: Antifungal activity against azole-resistant Aspergillus fumigatus isolate T22 harboring Cyp51A TR/L98H mutation assessed as inhibition of fungal growth at 1 mg/l relative to control; format: functional, organism-based
Aspergillus fumigatus [16] = experiment: Antifungal activity against azole-resistant Aspergillus fumigatus isolate T11 harboring Cyp51A TR/L98H mutant gene assessed as inhibition of fungal growth at 1 mg/l relative to control; format: functional, organism-based
Aspergillus fumigatus [17] = experiment: Antifungal activity against azole-susceptible Aspergillus fumigatus isolate CM-237 assessed as fungal growth at 1 mg/l relative to control; format: functional, organism-based

CCC(C)n1ncn(-c2ccc(N3CCN(c4ccc(OCC5COC(Cn6cncn6)(c6ccc(Cl)cc6Cl)O5)cc4)CC3)cc2)c1=O (stereo not given) [ITRACONAZOLE]
inhibition (Aspergillus fumigatus [1]): Active
MIC (Aspergillus nidulans): 1 µg/mL (≈ 1.42 µM)
MIC (Aspergillus fumigatus [2]): > 4 µg/mL
inhibition (Aspergillus fumigatus [3]): inactive
inhibition (Aspergillus fumigatus [4]): inactive
Activity (Aspergillus fumigatus [5]): Active
MIC (Aspergillus lentulus): 0.5 µg/mL (≈ 0.709 µM)
inhibition (Aspergillus fumigatus [6]): inactive
MIC (Aspergillus fumigatus [7]): 0.25 µg/mL (≈ 0.354 µM)
MIC (Aspergillus niger): 2 µg/mL (≈ 2.83 µM)

CC[C@@H]([C@H](C)O)n1ncn(-c2ccc(N3CCN(c4ccc(OC[C@@H]5CO[C@@](Cn6cncn6)(c6ccc(F)cc6F)C5)cc4)CC3)cc2)c1=O [POSACONAZOLE]
inhibition (Aspergillus fumigatus [8]): Active
Activity (Aspergillus fumigatus [9]): Active
MIC (Aspergillus nidulans): 0.5 µg/mL (≈ 0.713 µM)
inhibition (Aspergillus fumigatus [10]): inactive
inhibition (Aspergillus fumigatus [11]): Active
MIC (Aspergillus fumigatus [2]): 0.25 µg/mL (≈ 0.357 µM)
inhibition (Aspergillus fumigatus [12]): Active
MIC (Aspergillus lentulus): 0.25 µg/mL (≈ 0.357 µM)
MIC (Aspergillus fumigatus [7]): 0.06 µg/mL (≈ 0.0856 µM)
MIC (Aspergillus niger): 0.5 µg/mL (≈ 0.713 µM)

C[C@@H](c1ncncc1F)[C@](O)(Cn1cncn1)c1ccc(F)cc1F [VORICONAZOLE]
Activity (Aspergillus fumigatus [13]): Active
MIC (Aspergillus nidulans): 4 µg/mL (≈ 11.5 µM)
Activity (Aspergillus fumigatus [14]): inactive
Activity (Aspergillus fumigatus [15]): Active
MIC (Aspergillus fumigatus [2]): 2 µg/mL (≈ 5.73 µM)
inhibition (Aspergillus fumigatus [16]): Active
MIC (Aspergillus lentulus): 4 µg/mL (≈ 11.5 µM)
MIC (Aspergillus fumigatus [7]): 0.5 µg/mL (≈ 1.43 µM)
MIC (Aspergillus niger): 0.5 µg/mL (≈ 1.43 µM)
inhibition (Aspergillus fumigatus [17]): Active
